Like-named read-outs stand apart in the source and are kept apart here. Some results are limits rather than exact numbers.

The test deals with Rhesus PDE2A3 (Macaca mulatta, UniProt B3VTJ2). Put plainly: PDE2 fluorescence polarization (IMAP FP) inhibition assay, rhesus enzyme. The class given is biochemical, rhesus macaque. The protocol:
The activity of the compounds in accordance with the present invention as PDE2 inhibitors may be readily determined using a fluorescence polarization (FP) methodology (Huang, W., et al., J. Biomol Screen, 2002, 7: 215).
In a typical experiment the PDE2 inhibitory activity of the compounds of the present invention was determined in accordance with the following experimental method. Rhesus PDE2A3 was amplified from rhesus macaque brain cDNA (Biochain Institute, Hayward, Calif.) using primers based on human PDE2A sequence (accession NM_002599.3) where the forward primer containing a Kozak consensus was 5′-[…]-3′ and the reverse primer was 5′-[…]-3′. Amplification with Easy-A High-Fidelity PCR cloning enzyme (Stratagene, La Jolla, Calif.) was 95° C. for 2 minutes followed by thirty three cycles of 95° C. for 40 seconds, 52° C. for 30 seconds, and 72° C. for 2 minutes 48 seconds. Final extension was 72° C. for 7 minutes. The PCR product was TA cloned into pcDNA3.3-TOPO (Invitrogen, Carlsbad, Calif.) according to standard protocol. A consensus sequence was developed from multiple clones and then deposited into GenBank (EU812167). AD293 cells (Stratagene, La Jolla, Calif.) with 70-80% confluency were transiently transfected with rhesus PDE2A3/pcDNA3.3-TOPO using Lipofectamine 2000 according to manufacturer specifications (Invitrogen, Carlsbad, Calif.). Cells were harvested 48 hours post-transfection and lysed by sonication (setting 3, 10×5 sec pulses) in a buffer containing 20 mM HEPES pH 7.4, 1 mM EDTA and Complete Protease Inhibitor Cocktail Tablets (Roche, Indianapolis, Ind.). Lysate was collected by centrifugation at 75,000×g for 20 minutes at 4° C. and supernatant utilized for evaluation of PDE2 activity. The fluorescence polarization assay for cyclic nucleotide phosphodiesterases was performed using an IMAP® FP kit supplied by Molecular Devices, Sunnyvale, Calif. (product # R8139). […] Assays were performed at room temperature in 384-well microtiter plates with an incubation volume of 20.2 μL. Solutions of test compounds were prepared in DMSO and serially diluted with DMSO to yield 8 μL of each of 10 solutions differing by 3-fold in concentration, at 32 serial dilutions per plate. […] 0% of inhibition is determined by using DMSO (1% final concentrations).
A Labcyte Echo 555 (Labcyte, Sunnyvale, Calif.) is used to dispense 200 nL from each well of the titration plate to the 384 well assay plate. Ten microliters of a solution of enzyme (1/2000 final dilution from aliquots; sufficient to produce 20% substrate conversion) was added to the assay plate. Next 10 uL of a separate solution of the substrate FAM-labeled cAMP (50 nM final concentration product # R7506 from Molecular Devices) and the activator cGMP (1 uM final concentration), prepared in the assay buffer (10 mM Tris HCl, pH 7.2, 10 mM MgCl2, 0.05% NaN3 0.01% Tween-20, and 1 mM DTT) was added to the assay plate and shaken to mix. The reaction is allowed to proceed at room temperature for 60 minutes. A binding solution is then made from the kit components, comprised of 80% Solution A, 20% Solution B and binding reagent at a volume of 1/600 the total binding solution. The enzymatic reaction is stopped by addition of 60 μL of the binding solution to each well of the assay plates and the plates are sealed and shaken for 30 seconds. The plate was incubated at room temperature for at least one hour prior to determining the fluorescence polarization (FP). The parallel and perpendicular fluorescence of each well of the plate was measured using a Tecan Genios Pro plate reader (Tecan, Switzerland) or Perkin Elmer EnVision™ plate reader (Waltham, Mass.). Fluorescence polarization (mP) was calculated from the parallel (S) and perpendicular (P) fluorescence of each sample well and the analogous values for the median control well, containing only substrate (So and Po), using the following equation: Polarization (mP)=1000*(S/So−P/Po)/(S/So+P/Po).
Background: In fluorescence polarisation assays a small probe gives low polarisation when free and higher when bound to something large.

The mark [1] stands for this setting: Rhesus PDE2, Lab A, read-out: Rhesus PDE2 Ki (nM) - Lab A.
Where [2] appears, read: Rhesus PDE2, Lab B, read-out: Rhesus PDE2 Ki (nM) - Lab B.

Rhesus PDE2A3, sequence (B3VTJ2 1-941): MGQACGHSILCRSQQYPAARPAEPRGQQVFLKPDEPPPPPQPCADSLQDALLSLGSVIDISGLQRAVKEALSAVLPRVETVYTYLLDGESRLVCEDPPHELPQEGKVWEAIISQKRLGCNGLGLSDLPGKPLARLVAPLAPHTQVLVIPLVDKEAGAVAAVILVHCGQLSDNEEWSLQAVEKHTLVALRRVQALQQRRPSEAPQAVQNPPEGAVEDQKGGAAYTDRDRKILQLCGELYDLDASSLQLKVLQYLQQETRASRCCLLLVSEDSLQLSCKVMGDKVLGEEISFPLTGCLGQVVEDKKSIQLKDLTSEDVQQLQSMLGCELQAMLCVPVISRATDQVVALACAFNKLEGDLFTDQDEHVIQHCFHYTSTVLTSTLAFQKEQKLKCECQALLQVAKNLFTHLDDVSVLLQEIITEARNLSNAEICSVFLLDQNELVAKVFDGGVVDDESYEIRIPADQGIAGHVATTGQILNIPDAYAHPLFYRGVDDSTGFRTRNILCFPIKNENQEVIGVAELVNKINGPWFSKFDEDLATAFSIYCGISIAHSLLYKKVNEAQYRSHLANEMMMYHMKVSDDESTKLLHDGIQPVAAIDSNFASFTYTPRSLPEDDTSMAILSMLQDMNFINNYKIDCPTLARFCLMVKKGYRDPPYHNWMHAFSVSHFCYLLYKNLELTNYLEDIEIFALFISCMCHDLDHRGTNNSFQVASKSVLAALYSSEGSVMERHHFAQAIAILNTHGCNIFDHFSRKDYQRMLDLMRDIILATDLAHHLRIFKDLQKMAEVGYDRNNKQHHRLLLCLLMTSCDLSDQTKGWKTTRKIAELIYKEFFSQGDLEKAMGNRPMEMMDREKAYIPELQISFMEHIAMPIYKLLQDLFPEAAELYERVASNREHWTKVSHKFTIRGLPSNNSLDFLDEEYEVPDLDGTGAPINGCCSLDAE

By Ki is commonly meant the dissociation constant of the complex between target and ligand, obtained from inhibition or displacement. Take `Cc1cc(C(F)(F)F)ccc1CNC(=O)c1cc(=O)[nH]c(C2CC2)n1` [Example 228, 2-cyclopropyl-N-[2-methyl-4-(trifluoromethyl)benzyl]-6-oxo-1,6-dihydropyrimidine-4-carboxamide]: the Ki under setting [1] was determined as 1430 nM.

Regarding `C[C@@H](NC(=O)c1cc(=O)[nH]c(-c2ccccc2)n1)c1cccc2ccccc12` [Example 354, N-[(1R)-1-naphthalen-1-ylethyl]-6-oxo-2-phenyl-1,6-dihydropyrimidine-4-carboxamide], the “Rhesus PDE2 % inh. at 1 uM - Lab A” value (Rhesus PDE2, Lab A, at 1 uM) is 42 % inh. Further, the Ki by setting is: under setting [1], above 1000 nM; under setting [2], 2800 nM.

Consider `Cc1nc(C(=O)N[C@H](C)c2ccc(S(=O)(=O)C(F)(F)F)cc2)cc(=O)[nH]1` [Example 331, 2-Methyl-6-oxo-N-[(1R)-1-{4-[(trifluoromethyl)sulfonyl]phenyl}ethyl]-1,6-dihydropyrimidine-4-carboxamide], for which the Ki under setting [1] stood at 304 nM.

Consider `Cc1cc(-c2ccc([C@@H](C)NC(=O)c3cc(=O)[nH]c(C)n3)cc2)ccn1` [Example 319, 2-methyl-N-{(1R)-1-[4-(2-methylpyridin-4-yl)phenyl]ethyl}-6-oxo-1,6-dihydropyrimidine-4-carboxamide], for which, under setting [1], the Ki stood at 1490 nM.

Consider `CC(C)(NC(=O)c1cc(=O)[nH]c(-c2ncccn2)n1)c1ccc(OC(F)(F)F)c(F)c1` [Example 71, N-{1-[3-fluoro-4-(trifluoromethoxy)phenyl]-1-methylethyl}-6-oxo-1,6-dihydro-2,2′-bipyrimidine-4-carboxamide], for which the Ki under setting [1] is 1570 nM.

Consider `CC(C)c1ccc(CCNC(=O)c2cc(=O)[nH]c(-c3ccccc3)n2)cc1` [Example 348, N-{2-[4-(1-methylethyl)phenyl]ethyl}-6-oxo-2-phenyl-1,6-dihydropyrimidine-4-carboxamide], for which the Ki is around 877 nM under setting [1] and 1500 nM under setting [2].

For `C[C@@H](NC(=O)c1cc(=O)[nH]c(-c2ccccc2)n1)c1ccc(O)cc1` [Example 339, N-[(1R)-1-(4-hydroxyphenyl)ethyl]-6-oxo-2-phenyl-1,6-dihydropyrimidine-4-carboxamide], the Ki is, setting by setting: under setting [1], around 417 nM; under setting [2], 653 nM.

`O=C(NC(c1ccncc1)c1ccc(C(F)(F)F)cc1)c1cc(=O)[nH]c(-c2ccccc2)n1` (stereo not drawn) [Example 399, 6-oxo-2-phenyl-N-{pyridin-4-yl[4-(trifluoromethyl)phenyl]methyl}-1,6-dihydropyrimidine-4-carboxamide]: the Ki under setting [2] was 407 nM.

Take `Cc1nc(C(=O)NCc2ccc(C(F)(F)F)cc2Cl)cc(=O)[nH]1` [Example 24, N-[2-chloro-4-(trifluoromethyl)benzyl]-2-methyl-6-oxo-1,6-dihydropyrimidine-4-carboxamide]: the Ki under setting [1] turned out to be 3630 nM.

Regarding `CC(NC(=O)c1cc(=O)[nH]c(C2CC2)n1)c1ncc(C(F)(F)F)cn1` (stereo not drawn) [Example 203, 2-cyclopropyl-6-oxo-N-{1-[5-(trifluoromethyl)pyrimidin-2-yl]ethyl}-1,6-dihydropyrimidine-4-carboxamide], the inhibitory constant (Ki) under setting [1] was 4320 nM.

Take `Cc1nc(C(=O)NC(c2ccccc2)c2ccc(C(F)(F)F)cc2)cc(=O)[nH]1` (stereo not drawn) [Example 34, 2-methyl-6-oxo-N-{phenyl[4-(trifluoromethyl)phenyl]methyl}-1,6-dihydropyrimidine-4-carboxamide]: the inhibitory constant (Ki) under setting [1] worked out at 1420 nM.

As to `CC(NC(=O)c1cc(=O)[nH]c(-c2ccccc2)n1)c1ccc(C(F)(F)F)nc1` (stereo not drawn) [Example 356, 6-oxo-2-phenyl-N-{1-[6-(trifluoromethyl)pyridin-3-yl]ethyl}-1,6-dihydropyrimidine-4-carboxamide], the inhibitory constant (Ki) under setting [1] was 345 nM and the Ki under setting [2] is 490 nM.

For `C[C@@H](NC(=O)c1cc(=O)[nH]c(-c2ncccn2)n1)c1cc(F)c(C(F)(F)F)cc1F` [Example 429, N-{(1R)-1-[2,5-difluoro-4-(trifluoromethyl)phenyl]ethyl}-6-oxo-1,6-dihydro-2,2′-bipyrimidine-4-carboxamide], the Ki under setting [2] came out at 42 nM.

Consider `O=C(NC1(c2ccccc2OC(F)(F)F)CCC1)c1cc(=O)[nH]c(-c2ccccc2)n1` [Example 411, 6-oxo-2-phenyl-N-{1-[2-(trifluoromethoxy)phenyl]cyclobutyl}-1,6-dihydropyrimidine-4-carboxamide], for which the Ki under setting [2] was 1460 nM.

Regarding `COc1ccc(Cc2nc(C(=O)NC3(C)CC3)cc(=O)[nH]2)cc1OC` [Example 5, 2-(3,4-dimethoxybenzyl)-N-(1-methylcyclopropyl)-6-oxo-1,6-dihydropyrimidine-4-carboxamide], under setting [1], the Ki was 1150 nM.

`C[C@@H](NC(=O)c1cc(=O)[nH]c(-c2ccccc2)n1)c1ccc(CN(C)C)cc1` [Example 365, N-[(1R)-1-{4-[(dimethylamino)methyl]phenyl}ethyl]-6-oxo-2-phenyl-1,6-dihydropyrimidine-4-carboxamide]: the Ki under setting [1] is 6850 nM.

For the compound `COc1ccc(C(C)(C)NC(=O)c2cc(=O)[nH]c(-c3ccccc3)n2)cc1` [Example 460, N-[1-(4-methoxyphenyl)-1-methylethyl]-6-oxo-2-phenyl-1,6-dihydropyrimidine-4-carboxamide], under setting [2], the Ki worked out at 371 nM.

In the case of `Cc1nc(C(=O)NC(c2ccc(SC(F)(F)F)c(F)c2)C2(C)CC2)cc(=O)[nH]1` (single isomer, unassigned) [Example 703, (S)- or (R)-N-((3-fluoro-4-((trifluoromethyl)thio)phenyl)(1-methylcyclopropyl)methyl)-2-methyl-6-oxo-1,6-dihydropyrimidine-4-carboxamide], under setting [2], the Ki was above 2970 nM.

`COc1cc(C(F)(F)F)ccc1[C@@H](C)NC(=O)c1cc(=O)[nH]c(-c2ccccc2)n1` [Example 188, N-{(1R)-1-[2-methoxy-4-(trifluoromethyl)phenyl]ethyl}-6-oxo-2-phenyl-1,6-dihydropyrimidine-4-carboxamide]: the Ki under setting [1] came out at 1010 nM.

With `C[C@H](O)[C@@H](NC(=O)c1cc(=O)[nH]c(C2CC2)n1)c1ccc(C(F)(F)F)cc1` [Example 442, 2-cyclopropyl-N-{(1S,2S)-2-hydroxy-1-[4-(trifluoromethyl)phenyl]propyl}-6-oxo-1,6-dihydropyrimidine-4-carboxamide], the Ki under setting [2] was above 2970 nM.

Consider `CC(C)(NC(=O)c1cc(=O)[nH]c(-c2ccccc2)n1)c1ccc(S(F)(F)(F)(F)F)cc1` [Example 679, N-{1-methyl-1-[4-(pentafluoro-λ^6-sulfanyl)phenyl]ethyl}-6-oxo-2-phenyl-1,6-dihydropyrimidine-4-carboxamide], for which the Ki under setting [2] was 90 nM.

With `Cc1nc(C(=O)N[C@@H](C)c2cccc3ccccc23)cc(=O)[nH]1` [Example 302, 2-methyl-N-[(3S)-1-naphthalen-1-ylethyl]-6-oxo-1,6-dihydropyrimidine-4-carboxamide], the Ki under setting [1] was found to be 51400 nM.

In the case of `CC(NC(=O)c1cc(=O)[nH]c(-c2ccccc2)n1)c1cccc(Cl)c1` (stereo not drawn) [Example 368, N-[1-(3-chlorophenyl)ethyl]-6-oxo-2-phenyl-1,6-dihydropyrimidine-4-carboxamide], the Ki is around 880 nM under setting [1] and 1100 nM under setting [2].

As to `C[C@H](NC(=O)c1cc(=O)[nH]c(-c2ccccc2)n1)c1ccc(Cl)cc1` [Example 394, N-[(1S)-1-(4-chlorophenyl)ethyl]-6-oxo-2-phenyl-1,6-dihydropyrimidine-4-carboxamide], under setting [2], the Ki stood at 2220 nM.

These data come from US9815796B2 (Merck Sharp & Dohme Corp., priority 2013, dated 2017).
